Data as given in article PMC3185947 (British Journal of Cancer, 2011).
Read-outs that look alike come from different tables or passages of the source.

Key:
[1] = test system: previously treated patients with non-small cell lung cancer (NSCLC); conditions: cited from earlier work; for Median survival: ref Wacker et al, 2007
[2] = in vivo
From the text: (§1) PK parameters were estimated by non-compartmental methods (WinNonlin v.3.1, Pharsight Corp., Mountain View, CA, USA).

clinical = conditions: human, in vivo
From the text: as §1
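Wherever Cmax is given: pharmacokinetic parameters derived by non-compartmental analysis.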
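Wherever Interpatient and intrapatient variability of PK is given: pharmacokinetic parameters derived by non-compartmental analysis.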
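Wherever Relationships between dose and both AUC0–24 and Cmax (Spearman rank correlation) is given: pharmacokinetic parameters derived by non-compartmental analysis.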
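Wherever Tmax is given: pharmacokinetic parameters derived by non-compartmental analysis.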

C#Cc1cccc(Nc2ncnc3cc(OCCOC)c(OCCOC)cc23)c1 [erlotinib]
Median PFS ([1]; BR.21 study, 95% CI: 1.9–2.9 months, ref Shepherd et al, 2005): 2.2 months
ORR ([1]; BR.21 study, 95% CI: 6.4–12%, ref Shepherd et al, 2005): 8.9%
Median survival ([1]; erlotinib-treated patients who did not experience skin toxicity): 3 months
Median survival ([1]; erlotinib-treated patients with grade 1 skin toxicity): 7 months
Median survival ([1]; erlotinib-treated patients with grade 2/3 skin toxicity): 11 months
Relationships between dose and both AUC0–24 and Cmax (Spearman rank correlation) ([2]; human): did not reveal any significant deviation from dose proportionality
Interpatient and intrapatient variability of PK [2]: High
Cmax (clinical; 150 mg): 1910 ng/mL
Tmax (clinical; 150 mg): 2 h
Cmax (clinical; 200 mg): 2650 ng/mL
Tmax (clinical; 200 mg): 2 h
Cmax (clinical; 225 mg): 2540 ng/mL
Tmax (clinical; 225 mg): 2 h
Cmax (clinical; 250 mg): 2820 ng/mL
Tmax (clinical; 250 mg): 2.1 h
Cmax (clinical; 275 mg): 2190 ng/mL
Tmax (clinical; 275 mg): 1 h
Cmax (clinical; 300 mg): 2940 ng/mL
Tmax (clinical; 300 mg): 2 h
Cmax (clinical; 325 mg): 2800 ng/mL
Cmax (clinical; 350 mg): 1780 ng/mL
Tmax (clinical; 350 mg): 3.5 h
Cmax (clinical; 375 mg): 2770 ng/mL
Tmax (clinical; 375 mg): 1 h
Tmax (clinical; 400 mg): 2 h
Cmax (clinical; 425 mg): 2780 ng/mL
Cmax (clinical; 450 mg): 4100 ng/mL
Tmax (clinical; 450 mg): 8 h
Cmax (clinical; 475 mg): 2200 ng/mL
Tmax (clinical; 475 mg): 4.2 h
